Assay results: ChEMBL document CHEMBL1133988 (Bioorg Med Chem Lett, 2001)
Values after ≈ are worked out from the molar mass of the structure shown.

How the values were obtained:
[1] = Binding affinity towards histone deacetylase (HDAC) enzyme derived from chicken liver (CL) cells using [3H]11; set-up: species or system Gallus gallus
[2] = system: Eimeria tenella; assay: In vitro antiprotozoal activity using […] bovine kidney host cells infected with Eimeria tenella; type: functional
[3] = system: Plasmodium falciparum; assay: In vitro antiprotozoal activity against Plasmodium falciparum infected erythrocytes; type: functional, organism-based
[4] = biological target: Histone deacetylase; assay: Inhibitory activity against histone deacetylase (HDAC) enzyme derived from partially purified extracts of human HeLa cells using [3H]11 as radioligand
[5] = Tested in vitro by mammalian antiproliferative functional assay using human HeLa cells or foreskin fibroblasts
[6] = Binding affinity towards HDAC enzyme derived from chicken liver (CL) cells; set-up: species or system Gallus gallus

SMILES	IC50 [3]	IC50 [4]	Ki [1]	MIC [2]	AP50 [5]	Ki [6]
CCC(=O)CCCCC[C@@H]1NC(=O)[C@H]2CCCCN2C(=O)[C@H]([C@@H](C)CC)NC(=O)[C@H](C(=O)c2c[nH]c3ccccc23)NC1=O	0.016 µg/mL (≈ 0.0263 µM)		12 nM	0.125 µg/mL (≈ 0.206 µM)		
CCC(=O)CCCCC[C@@H]1NC(=O)[C@H]2CCCCN2C(=O)[C@H]([C@@H](C)CC)NC(=O)[C@@H](C(=O)Cc2ccccc2)NC1=O	0.777 µg/mL (≈ 1.33 µM)			0.5 µg/mL (≈ 0.858 µM)	>10000 ng/mL	500 nM
CCC(=O)CCCCC[C@@H]1NC(=O)[C@H]2CCCCN2C(=O)[C@H]([C@@H](C)CC)NC(=O)[C@@H](c2cnc3ccccc3c2O)NC1=O	0.055 µg/mL (≈ 0.0905 µM)			> 1 µg/mL	>10000 ng/mL	500 nM
CCC(=O)CCCCC[C@@H]1NC(=O)[C@H]2CCCCN2C(=O)[C@H]([C@@H](C)CC)NC(=O)[C@H](c2cnc3ccccc3c2O)NC1=O	0.04 µg/mL (≈ 0.0658 µM)			> 1 µg/mL	>10000 ng/mL	1000 nM
CCC(=O)CCCCC[C@@H]1NC(=O)[C@H]2CCCCN2C(=O)[C@H]([C@@H](C)CC)NC(=O)[C@H](c2cn(OC)c3ccccc3c2=O)NC1=O	0.04 µg/mL (≈ 0.0627 µM)			0.25 µg/mL (≈ 0.392 µM)	10000 ng/mL	1500 nM
CCC(=O)CCCCC[C@@H]1NC(=O)[C@H]2CCCCN2C(=O)[C@H]([C@@H](C)CC)NC(=O)[C@H](CCOc2ccccc2)NC1=O		34 nM		0.25 µg/mL (≈ 0.428 µM)	1450 ng/mL	
CCC(=O)CCCCC[C@@H]1NC(=O)[C@H]2CCCCN2C(=O)[C@H]([C@@H](C)CC)NC(=O)[C@H](Cc2c(Br)[nH]c3ccccc23)NC1=O	0.025 µg/mL (≈ 0.0372 µM)		3 nM	0.015 µg/mL (≈ 0.0223 µM)		
CCC(=O)CCCCC[C@@H]1NC(=O)[C@H]2CCCCN2C(=O)[C@H]([C@@H](C)CC)NC(=O)[C@H](Cc2c(-c3ccc4c(ccn4C)c3)[nH]c3ccccc23)NC1=O	0.1 µg/mL (≈ 0.138 µM)		5 nM	0.062 µg/mL (≈ 0.0858 µM)		
CCC(=O)CCCCC[C@@H]1NC(=O)[C@H]2CCCCN2C(=O)[C@H]([C@@H](C)CC)NC(=O)[C@H](Cc2cn(CC(=O)O)c3ccccc23)NC1=O	> 1 µg/mL		80 nM	> 1 µg/mL		
CCC(=O)CCCCC[C@@H]1NC(=O)[C@H]2CCCCN2C(=O)[C@H]([C@@H](C)CC)NC(=O)[C@@H](C(=O)c2c[nH]c3ccccc23)NC1=O	0.07 µg/mL (≈ 0.115 µM)		30 nM	0.125 µg/mL (≈ 0.206 µM)		
CCC(=O)CCCCC[C@@H]1NC(=O)[C@H]2CCCCN2C(=O)[C@H]([C@@H](C)CC)NC(=O)[C@H](CC(=O)C(C)(C)C)NC1=O	0.775 µg/mL (≈ 1.38 µM)			> 1 µg/mL	>10000 ng/mL	2000 nM
CCC(=O)CCCCC[C@@H]1NC(=O)[C@H]2CCCCN2C(=O)[C@H]([C@@H](C)CC)NC(=O)[C@H](c2cnc3ccccc3c2N2CCCCC2)NC1=O [listing 1 of 2 here]	0.055 µg/mL (≈ 0.0815 µM)	13 nM				100 nM
CCC(=O)CCCCC[C@@H]1NC(=O)[C@H]2CCCCN2C(=O)[C@H]([C@@H](C)CC)NC(=O)[C@H](c2cnc3ccccc3c2N2CCCCC2)NC1=O [listing 2 of 2 here]				0.125 µg/mL (≈ 0.185 µM)	2500 ng/mL	
CCC(=O)CCCCC[C@@H]1NC(=O)[C@H]2CCCCN2C(=O)[C@H]([C@@H](C)CC)NC(=O)[C@H](c2cnc3ccccc3c2Cl)NC1=O [listing 1 of 2 here]	0.225 µg/mL (≈ 0.359 µM)	67 nM				300 nM
CCC(=O)CCCCC[C@@H]1NC(=O)[C@H]2CCCCN2C(=O)[C@H]([C@@H](C)CC)NC(=O)[C@H](c2cnc3ccccc3c2Cl)NC1=O [listing 2 of 2 here]				0.2 µg/mL (≈ 0.319 µM)	10000 ng/mL	
CCC(=O)CCCCC[C@@H]1NC(=O)[C@H]2CCCCN2C(=O)[C@H]([C@@H](C)CC)NC(=O)[C@H](Cc2c(-c3cc(OC)cc(OC)c3)[nH]c3ccccc23)NC1=O	0.25 µg/mL (≈ 0.343 µM)	0.2 nM		0.125 µg/mL (≈ 0.171 µM)		
CCC(=O)CCCCC[C@@H]1NC(=O)[C@H]2CCCCN2C(=O)[C@H]([C@@H](C)CC)NC(=O)[C@H](Cc2c[nH]c3ccccc23)NC1=O	0.035 µg/mL (≈ 0.0589 µM)	2 nM		0.031 µg/mL (≈ 0.0522 µM)		
CCCn1cc(C(=O)[C@H]2NC(=O)[C@H](CCCCCC(=O)CC)NC(=O)[C@H]3CCCCN3C(=O)[C@H]([C@@H](C)CC)NC2=O)c2ccccc21	0.15 µg/mL (≈ 0.231 µM)	15 nM		0.125 µg/mL (≈ 0.192 µM)		
CCC(=O)CCCCC[C@@H]1NC(=O)[C@H]2CCCCN2C(=O)[C@H]([C@@H](C)CC)NC(=O)[C@H](Cc2cn(OC)c3ccccc23)NC1=O [APICIDIN]	0.058 µg/mL (≈ 0.093 µM)			0.094 µg/mL (≈ 0.151 µM)	89 ng/mL	4 nM

Second part, led by results:

IC50 [3]	IC50 [4]	SMILES	Ki [1]	MIC [2]	AP50 [5]	Ki [6]
0.5 µg/mL (≈ 0.797 µM)	91 nM	CCC(=O)CCCCC[C@@H]1NC(=O)[C@H]2CCCCN2C(=O)[C@H]([C@@H](C)CC)NC(=O)[C@H](CC(=O)c2ccccc2[N+](=O)[O-])NC1=O		0.125 µg/mL (≈ 0.199 µM)		
0.24 µg/mL (≈ 0.377 µM)		CCC(=O)CCCCC[C@@H]1NC(=O)[C@H]2CCCCN2C(=O)[C@H]([C@@H](C)CC)NC(=O)[C@H](c2cn(CC)c3ccccc3c2=O)NC1=O		> 1 µg/mL	>10000 ng/mL	2000 nM
0.85 µg/mL (≈ 1.42 µM)		CCC(=O)CCCCC[C@@H]1NC(=O)[C@H]2CCCCN2C(=O)[C@H]([C@@H](C)CC)NC(=O)[C@H](CC(=O)Cc2ccccc2)NC1=O		> 1 µg/mL	>10000 ng/mL	2000 nM
0.015 µg/mL (≈ 0.0241 µM)		CCC(=O)CCCCC[C@@H]1NC(=O)[C@H]2CCCCN2C(=O)[C@H]([C@@H](C)CC)NC(=O)[C@@H](C(=O)c2ccc3c(ccn3C)c2)NC1=O	20 nM	0.05 µg/mL (≈ 0.0804 µM)		
0.7 µg/mL (≈ 1.04 µM)	4 nM	CCC(=O)CCCCC[C@@H]1NC(=O)[C@H]2CCCCN2C(=O)[C@H]([C@@H](C)CC)NC(=O)[C@H](Cc2c(-c3ccccc3)[nH]c3ccccc23)NC1=O		> 1 µg/mL		
> 1 µg/mL		CCC(=O)CCCCC[C@@H]1NC(=O)[C@H]2CCCCN2C(=O)[C@H]([C@@H](C)CC)NC(=O)[C@H](CC2CN(OC)c3ccc(Br)cc32)NC1=O (stereo not given in full)	4500 nM	0.1 µg/mL (≈ 0.142 µM)		
> 1 µg/mL		CCCCCCCCCCC(=O)C[C@@H]1NC(=O)[C@H](CCCCCC(=O)CC)NC(=O)[C@H]2CCCCN2C(=O)[C@H]([C@@H](C)CC)NC1=O		> 1 µg/mL	>10000 ng/mL	> 1000 nM
0.55 µg/mL (≈ 0.783 µM)		CCC(=O)CCCCC[C@@H]1NC(=O)[C@H]2CCCCN2C(=O)[C@H]([C@@H](C)CC)NC(=O)[C@H](Cc2cn(OC)c3ccc(Br)cc23)NC1=O	60 nM	0.5 µg/mL (≈ 0.712 µM)		
0.035 µg/mL (≈ 0.0517 µM)	0.2 nM	CCC(=O)CCCCC[C@@H]1NC(=O)[C@H]2CCCCN2C(=O)[C@H]([C@@H](C)CC)NC(=O)[C@H](Cc2cn(CN3CCCC3)c3ccccc23)NC1=O		0.031 µg/mL (≈ 0.0458 µM)		
0.1 µg/mL (≈ 0.157 µM)	1.3 nM	CCC(=O)CCCCC[C@@H]1NC(=O)[C@H]2CCCCN2C(=O)[C@H]([C@@H](C)CC)NC(=O)[C@H](Cc2cn(CCN)c3ccccc23)NC1=O		> 1 µg/mL		
0.18 µg/mL (≈ 0.289 µM)		CCC(=O)CCCCC[C@@H]1NC(=O)[C@H]2CCCCN2C(=O)[C@H]([C@@H](C)CC)NC(=O)[C@H](Cc2cn(CC)c3ccccc23)NC1=O	10 nM	0.05 µg/mL (≈ 0.0804 µM)		
0.02 µg/mL (≈ 0.0329 µM)		CCC(=O)CCCCC[C@@H]1NC(=O)[C@H]2CCCCN2C(=O)[C@H]([C@@H](C)CC)NC(=O)[C@H](Cc2cn(C)c3ccccc23)NC1=O	5 nM	0.125 µg/mL (≈ 0.206 µM)		
